Results: patent publication US8192962B2, “Processes for detecting toxic substances” (Daikin Industries, Ltd., priority 2001, dated 2012)

Test system: Transport facilitation protein genes
Assay: DNA chip mRNA expression in yeast, transport facilitation protein genes (Table 5)
Assay type: cell-based, Saccharomyces cerevisiae S288C
Summary of the method: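 Whole-genome yeast DNA chip hybridization (65° C., >12 h) of Cy-labeled cDNA from S288C cells exposed 2 h at 25° C. to a sub-lethal toxicant dose in YPD; value is intensity relative to chemical-free control.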

## N#Cc1c(Cl)c(Cl)c(Cl)c(C#N)c1Cl [(9), 2,4,5,6-tetrachloro-1,3-benzenedicarbonitrile]
Yeast gene YGR260W
  The level of expressed mRNA in the presence of chemical substance/The level of expressed mRNA in the absence of chemical substance: 0.3
Yeast gene YGR281W
  The level of expressed mRNA in the presence of chemical substance/The level of expressed mRNA in the absence of chemical substance: 2.7
Yeast gene YHL035C
  The level of expressed mRNA in the presence of chemical substance/The level of expressed mRNA in the absence of chemical substance: 0.6
Yeast gene YHL040C
  The level of expressed mRNA in the presence of chemical substance/The level of expressed mRNA in the absence of chemical substance: 1.1
Yeast gene YHL047C
  The level of expressed mRNA in the presence of chemical substance/The level of expressed mRNA in the absence of chemical substance: 1.2
Yeast gene YHR026W
  The level of expressed mRNA in the presence of chemical substance/The level of expressed mRNA in the absence of chemical substance: 1.1
Yeast gene YHR092C
  The level of expressed mRNA in the presence of chemical substance/The level of expressed mRNA in the absence of chemical substance: 0.2
Yeast gene YHR094C
  The level of expressed mRNA in the presence of chemical substance/The level of expressed mRNA in the absence of chemical substance: 0.3
Yeast gene YHR175W
  The level of expressed mRNA in the presence of chemical substance/The level of expressed mRNA in the absence of chemical substance: 0.6
Yeast gene YIL006W
  The level of expressed mRNA in the presence of chemical substance/The level of expressed mRNA in the absence of chemical substance: 0.9
Yeast gene YIL022W
  The level of expressed mRNA in the presence of chemical substance/The level of expressed mRNA in the absence of chemical substance: 1.1
Yeast gene YIL056W
  The level of expressed mRNA in the presence of chemical substance/The level of expressed mRNA in the absence of chemical substance: 1.2
Yeast gene YIL088C
  The level of expressed mRNA in the presence of chemical substance/The level of expressed mRNA in the absence of chemical substance: 1.0
Yeast gene YJL034W
  The level of expressed mRNA in the presence of chemical substance/The level of expressed mRNA in the absence of chemical substance: 2.8
Yeast gene YJL212C
  The level of expressed mRNA in the presence of chemical substance/The level of expressed mRNA in the absence of chemical substance: 1.1
Yeast gene YJL219W
  The level of expressed mRNA in the presence of chemical substance/The level of expressed mRNA in the absence of chemical substance: 4.0
Yeast gene YJR077C
  The level of expressed mRNA in the presence of chemical substance/The level of expressed mRNA in the absence of chemical substance: 0.4
Yeast gene YJR106W
  The level of expressed mRNA in the presence of chemical substance/The level of expressed mRNA in the absence of chemical substance: 2.0
Yeast gene YJR121W
  The level of expressed mRNA in the presence of chemical substance/The level of expressed mRNA in the absence of chemical substance: 0.8
Yeast gene YKL016C
  The level of expressed mRNA in the presence of chemical substance/The level of expressed mRNA in the absence of chemical substance: 1.3
Yeast gene YKL146W
  The level of expressed mRNA in the presence of chemical substance/The level of expressed mRNA in the absence of chemical substance: 4.6
Yeast gene YKR039W
  The level of expressed mRNA in the presence of chemical substance/The level of expressed mRNA in the absence of chemical substance: 1.9
Yeast gene YKR067W
  The level of expressed mRNA in the presence of chemical substance/The level of expressed mRNA in the absence of chemical substance: 1.6
Yeast gene YKR105C
  The level of expressed mRNA in the presence of chemical substance/The level of expressed mRNA in the absence of chemical substance: 1.0
Yeast gene YLL028W
  The level of expressed mRNA in the presence of chemical substance/The level of expressed mRNA in the absence of chemical substance: 1.2
Yeast gene YLR081W
  The level of expressed mRNA in the presence of chemical substance/The level of expressed mRNA in the absence of chemical substance: 0.1
Yeast gene YLR295C
  The level of expressed mRNA in the presence of chemical substance/The level of expressed mRNA in the absence of chemical substance: 1.4
Yeast gene YLR348C
  The level of expressed mRNA in the presence of chemical substance/The level of expressed mRNA in the absence of chemical substance: 2.1
Yeast gene YLR378C
  The level of expressed mRNA in the presence of chemical substance/The level of expressed mRNA in the absence of chemical substance: 1.1
Yeast gene YMR011W
  The level of expressed mRNA in the presence of chemical substance/The level of expressed mRNA in the absence of chemical substance: 0.0
Yeast gene YMR162C
  The level of expressed mRNA in the presence of chemical substance/The level of expressed mRNA in the absence of chemical substance: 0.7
Yeast gene YMR203W
  The level of expressed mRNA in the presence of chemical substance/The level of expressed mRNA in the absence of chemical substance: 0.7
Yeast gene YNL055C
  The level of expressed mRNA in the presence of chemical substance/The level of expressed mRNA in the absence of chemical substance: 1.1
Yeast gene YNL259C
  The level of expressed mRNA in the presence of chemical substance/The level of expressed mRNA in the absence of chemical substance: 1.6
Yeast gene YNR072W
  The level of expressed mRNA in the presence of chemical substance/The level of expressed mRNA in the absence of chemical substance: 0.7
Yeast gene YOL119C
  The level of expressed mRNA in the presence of chemical substance/The level of expressed mRNA in the absence of chemical substance: 5.0
Yeast gene YOL156W
  The level of expressed mRNA in the presence of chemical substance/The level of expressed mRNA in the absence of chemical substance: 2.3
Yeast gene YOL163W
  The level of expressed mRNA in the presence of chemical substance/The level of expressed mRNA in the absence of chemical substance: 7.5
Yeast gene YOR035C
  The level of expressed mRNA in the presence of chemical substance/The level of expressed mRNA in the absence of chemical substance: 1.3
Yeast gene YOR130C
  The level of expressed mRNA in the presence of chemical substance/The level of expressed mRNA in the absence of chemical substance: 2.0
Yeast gene YOR153W
  The level of expressed mRNA in the presence of chemical substance/The level of expressed mRNA in the absence of chemical substance: 3.2
Yeast gene YOR270C
  The level of expressed mRNA in the presence of chemical substance/The level of expressed mRNA in the absence of chemical substance: 0.4
Yeast gene YOR273C
  The level of expressed mRNA in the presence of chemical substance/The level of expressed mRNA in the absence of chemical substance: 0.6
Yeast gene YOR316C
  The level of expressed mRNA in the presence of chemical substance/The level of expressed mRNA in the absence of chemical substance: 1.6
Yeast gene YOR332W
  The level of expressed mRNA in the presence of chemical substance/The level of expressed mRNA in the absence of chemical substance: 1.8
Yeast gene YOR348C
  The level of expressed mRNA in the presence of chemical substance/The level of expressed mRNA in the absence of chemical substance: 0.5
Yeast gene YPL036W
  The level of expressed mRNA in the presence of chemical substance/The level of expressed mRNA in the absence of chemical substance: 0.1
Yeast gene YPL134C
  The level of expressed mRNA in the presence of chemical substance/The level of expressed mRNA in the absence of chemical substance: 0.6
Yeast gene YPL265W
  The level of expressed mRNA in the presence of chemical substance/The level of expressed mRNA in the absence of chemical substance: 0.2
Yeast gene YPL271W
  The level of expressed mRNA in the presence of chemical substance/The level of expressed mRNA in the absence of chemical substance: 0.6
Yeast gene YPR192W
  The level of expressed mRNA in the presence of chemical substance/The level of expressed mRNA in the absence of chemical substance: 0.7
Yeast gene YPR194C
  The level of expressed mRNA in the presence of chemical substance/The level of expressed mRNA in the absence of chemical substance: 0.5
